# According to patent US7041276B2, “Methods of screening agents for activity using teleosts” (priority 1998, dated 2006):
# Entries after “also recorded” stand apart in the source; their conditions may differ.
# What was measured:
# [1] = system: zebrafish embryos; assay: Five-day zebrafish toxicity testing; assay type: in vivo
# Protocol: Fertilized zebrafish embryos were obtained by natural spawning in our aquaculture facility. To reduce variations between batches, randomized samples of embryos from 3 or 4 independent matings were used. The test medium was prepared by combining 5 g of Instant Ocean Salt with 3 g of CaSO4 in 25 liters of distilled water, according to Westerfield, supra. The embryos were maintained in the test medium throughout the experiments. Embryos at 24 hours of development (with chorion) were exposed continuously for five days to chemical compounds at different concentrations of the chemical compounds and controls. In general, the concentrations ranged from 100 nanomolar (nM) to 100 micromolar (μM). Tests were repeated four times for each series of dilutions, and a standard deviation was calculated for each treatment (see “Statistical Methods” section). Ten embryos per concentration were exposed in a total volume of 1 ml (constant ratio of 100 μl/embryo) using a 24 multi-well plate. (Other sizes of multi-well plates, such as 96-well plates can also be used to facilitate screening.) The compounds were renewed daily. In all cases, 0.1% of dimethyl sulfoxide (DMSO) was used as a carrier solvent during the treatment. Controls with and without 0.1% DMSO were performed in all experiments. This approach has long been used to introduce anesthetics and other chemicals into fish embryos (Westerfield, supra).
# Experiments were carried out at a constant temperature (28–28.5° C.) in the dark to protect the compounds from decomposition due to light exposure. Dead embryos were removed daily, counted, and used to calculate the Median Lethal Concentration (LC50, see “Statistical Methods” section herein). Each day, surviving embryos were analyzed visually under a dissecting binocular microscope (Zeiss, amplification 30–50×). Macroscopic malformations (such as axial defects, embryolethality, growth inhibition, general malformations, including microcephaly, macrocephaly, tail truncation, tail malformation, loss of axial structures, such as somites, etc.) were observed, classified, and counted to assess whole animal toxicity. Compounds that were lethal or induced these or any noted malformations or disruptions during development (e.g., during the first 5 days of development) were further examined for toxic effects on organs. The embryonic developmental stage that is affected by the toxic compound can be determined. Organ toxicity can be assessed in surviving embryos using in situ hybridization, enzymatic assays, and immunochemistry procedures.
# Toxic activity in the kidney (Pronephros) can be assessed visually by colorimetric staining of the kidney of the treated whole animal (e.g., zebrafish). Zebrafish pronephros express high levels of the enzyme alkaline phosphatase that can be easily assayed using a chromogenic dye. To stain kidneys in zebrafish embryos, embryos were fixed with 2% paraformaldehyde overnight at 4° C. and then treated with methanol 100% for 30 minutes at room temperature. […]
# For the concentrations tested with aspirin and dexamethasone in these studies, there was no partial lethality and the geometric mean of the parameters “no mortality” (0%) and “mortality” (100%) of the effect concentration was taken as the LC50 and binomial confidence limits were calculated according to Stephan, “Methods for Calculating LD50” in Aquatic Toxicology and Hazard Evaluation (F. L. Mayce and J. L. Hamelink eds.) ASTM STP 634, pp. 65–84. […]
# [2] = system: mice and rats; conditions: TOXNET Web Search and other sources; cited from earlier work
# [3] = system: zebrafish embryos; assay: Rescue of induced cell death activity; assay type: in vivo; conditions: for opacity at two hours after the addition of 100 μM Ibuprofen / opaque cells at one hour after 100 μM Ibuprofen: yolk injection of 25 μM Caspase 3 inhibitor or PBS at 24 hours; for opaque cells at one hour after 100 μM Ibuprofen: Ibuprofen at 26 hours
# Protocol: To determine if the teleost model could be used to screen for compounds which blocked or reduced cell death activity, embryos were microinjected with a Caspase 3 inhibitor (Calbiochem #264155) prior to exposure to Ibuprofen.
# Specifically, embryos at 24 hours of development were dechorionated and microinjected with either 25 μM Caspase 3 inhibitor or PBS into the yolk. At 26 hours of development, embryos were exposed to 100 μM Ibuprofen by addition to the media.
# [4] = system: zebrafish embryos; assay: Fluorescent detection of cell death in live zebrafish embryos; assay type: in vivo; conditions: 100 μM
# Protocol: As an additional test of our cell death detection method, we also examined the ability of the dye to label cells in embryos treated with Ibuprofen, a cyclooxygenase inhibitor, which causes a characteristic pattern of cell death. This pattern consists of a posterior to anterior progression of dying cells as indicated by a progression of opacity changes in the cells of the embryo.
# Embryos as 24 hours of development were pretreated for 1 hour with a 100 nanomolar concentration of the fluorescent dye (e.g., benzothiazolium-4-quinolium dye) in embryo media. The embryos were then exposed to 100 μM of Ibuprofen by addition to the media and examined by light and epifluorescence microscopy every 15 minutes for 2 hours. Control embryos were pretreated with the same concentration of dye, but were not exposed to the Ibuprofen. […] This pattern of fluorescently labeled cells was identical to the pattern observed for the opacity changes in the embryo.
# [5] = system: zebrafish embryo; assay: First screening experiments for anti-angiogenic effects (compound added to fish culture media); assay type: in vivo; conditions: for other effects / complications in the embryo / effect on blood vessel formation: added to the fish culture media; for effect on blood vessel formation: AP staining day three; for diffusion into the zebrafish embryo: after addition to the media
# Protocol: On the third day of development, embryos were collected for alkaline phosphatase staining. Specifically, embryos were fixed in 4% paraformaldehyde and stained for endogenous alkaline phosphatase activity. Embryos were fixed for 2 hours at room temperature. The embryos were then washed two times in phosphate buffered saline (PBS) and dehydrated by immersion in 25%, 50%, 75% and 100% methanol in phosphate buffered saline with 0.1% Tween (PBT) to permeabilize the embryos. The embryos were then rehydrated and washed in 100% PBT. For staining, embryos were equilibrated in NTMT buffer (0.1M Tris-HCl pH 9.5; 50 mM MgCl; 0.1M NaCl; 0.1% Tween 20) at room temperature. After the embryos equilibrated, embryos were stained by adding 4.5 μl of 75 mg/ml nitro blue tetrazolium (NBT) and 3.5 μL of 50 mg/ml X-phosphate per ml. After staining for 10 minutes, all the blood vessels in the fish embryo were labeled (see FIGS. 2A–2C, 3A–3B, 4, 7). The staining reaction was stopped by addition of PBST. Embryos were then examined on a stereo-dissecting microscope. One advantage of using the zebrafish for this type of assay is that the subintestinal vessels, which are located over the yolk, are both sensitive to factors which effect vessel formation and easily assayed by this method (see, e.g., FIG. 7). The subintestinal vessels are normally present on the dorsolateral surface of the yolk of zebrafish embryos by 48 hours of development. They form a distinct basket shape that extends 50–100 μm from the ventral edge of the somite over the yolk. By assaying the subintestinal vessels at 72 hours of development (24 hours after the subintestinal vessels normally appear), normal variation in the timing of the vessel formation was avoided. The staining procedure is easily automated using commercially available instrumentation.
# In our first set of screening experiments for anti-angiogenic effects, we examined the effect of fumagillin, a natural anti-angiogenesis chemical, on blood vessel formation in the zebrafish embryo. The compound was administered by addition to the fish culture media. […] Using the screening parameters described above, we identified two compounds that caused apparently specific anti-angiogenic effects. In addition, we identified 16 other compounds that caused a reduction of angiogenic vessel formation in addition to other effects.
# [6] = system: zebrafish embryos; assay: Microinjection of proteins into 24 hour embryos, effect on vessel formation; assay type: in vivo
# Protocol: To examine the effects of proteins and protein fragments (and peptides and peptide fragments) on angiogenesis in teleost embryos, proteins (and protein fragments and peptide fragments) were directly injected into the circulation of 24 hour zebrafish embryos. Embryos were collected and dechorionated as described above. The embryos were then sorted into holding ramps made of 1% agarose in embryo water and oriented with the yolk ball projecting up. Microinjection injection was performed as follows: the proteins were suspended in PBS and backfilled into a pulled glass micropipet. The micropipet was then attached to a micromanipulator and a picospritzer (General Valve) attached to a nitrogen tank. Using the micromanipulator, the tip of the micropipet was inserted into the embryo and a small volume of protein solution was expelled from the tip using positive pressure. To determine if our animal model could be used effectively to screen for these compounds, we performed a series of experiments in which we injected one of two different proteins having opposing effects on vessel formation—human endostatin (O'Reilly et al., Cell 88(2):277–285 (1997)) and human vascular endothelial growth factor (VEGF)—into an embryo. Endostatin, a collagen XVIII fragment, is an endogenous protein with potent anti-angiogenic activity. […] In preliminary experiments, we injected VEGF protein either into the yolk ball or into the perivitelline space between the yolk and the periderm. Because the second location is in the path of the venous return, proteins end up in the circulation of the embryo. To backfill the injection pipettes, we used a 2 mg/ml solution of VEGF. […] This is consistent with observations in other vertebrates. Drake et al., Proc. Natl. Acad. Sci. USA 92(17):7657–7661 (1995); Fouquet et al., supra. Endostatin was injected into the zebrafish as was VEGF.
# [7] = 24 hour embryos pretreated with dye
# [8] = 2 mg/ml solution, 24 hour embryos, AP staining at 72 hours
compound,measurement,setting,value
CC(=O)Oc1ccccc1C(=O)O [Aspirin],Zebrafish LD50,[1]; embryos exposed continuously for five days from 24 hours of development,101 mg/L
same,Zebrafish specific toxicity observed,[1]; five-day exposure,"teratogen,; also recorded: kidney,; also recorded: muscle; also recorded: erratic"
same,Mammalian models specific toxicity (from the literature),[2],"kidney,; also recorded: ureter,; also recorded: cardio-; also recorded: cranio-; also recorded: musculo-"
COC(=O)CC[C@H](NC(=O)[C@H](CC(=O)OC)NC(=O)OCc1ccccc1)C(=O)N[C@H](C(=O)N[C@@H](CC(=O)OC)C(=O)CF)C(C)C [Caspase 3 inhibitor],survival by 24 hours after the introduction of 100 μM Ibuprofen,[3]; yolk injection of 25 μM Caspase 3 inhibitor,all of the experimental embryos were dead
same,opacity at two hours after the addition of 100 μM Ibuprofen,[3],still transparent
same,opaque cells at one hour after 100 μM Ibuprofen,[3],not in embryos injected with the Caspase inhibitor
CC(C)Cc1ccc(C(C)C(=O)O)cc1 (centres unmarked) [Ibuprofen],fluorescently labeled (dead or dying) cells within 1 hour,[4]; 24 hour embryos pretreated with 100 nanomolar dye,fluorescently labeled cells were detected in the posterior tip of the tail
same,fluorescently labeled cells at 1 hour and 30 minutes,[4]; [7],"labeled cells were detected in a large patch, extended from the tip of the tail to the level of the anus"
same,fluorescently labeled cells by two hours,[4]; [7],fluorescently labeled cells could be seen throughout the embryo
same,opacity at two hours after the addition of 100 μM Ibuprofen,[3],completely opaque
same,opaque cells at one hour after 100 μM Ibuprofen,[3],opaque cells were observed
CO[C@@H]1[C@H](OC(=O)/C=C/C=C/C=C/C=C/C(=O)O)CC[C@]2(CO2)[C@H]1[C@@]1(C)O[C@@H]1CC=C(C)C [fumagillin],other effects / complications in the embryo,[5],"pericardial edema, developmental delay, and axial defects"
same,effect on blood vessel formation,[5],reduction in angiogenesis
same,diffusion into the zebrafish embryo,[5],capable of diffusing into the zebrafish embryo
Ovicillin,other effects / complications in the embryo,[5],pericardial edema
same,effect on blood vessel formation,[5],reduction in the subintestinal vessels
same,diffusion into the zebrafish embryo,[5],capable of diffusing into the zebrafish embryo
VEGF,angiogenic phenotypes after injection into the yolk,[6]; [8],the appearance of long spikes projecting from the subintestinal vessel basket; also recorded: increased vessel diameters in the subintestinal basket
same,effect after injection into the perivitelline space,[6]; [8],"disruption of vessel formation; also recorded: fusion of large vessels, inappropriate vessel formation"
endostatin,effect on vessel formation after injection,[6]; injected into the zebrafish as was VEGF,inconsistent and thus uninterpretable
